Here are results for 17 compounds from patent USRE41315E1, “Modulators of dopamine neurotransmission” (NSAB, Filial af NeuroSearch Sweden AB, priority 1999, dated 2010).

Counter-ions that a name gives are not always drawn.

Data set [1] in a line: In vivo test: pharmacokinetics in the rat. The method, then: To determine oral availability (F); and plasma half life (t1/2) of test compounds of this invention experiments performed in the rat were undertaken. On day one rats were implanted with one catheter in the jugular vein and one catheter in the carotid artery under ketamine anesthesia. On day three test compound is injected the either orally or in the jugular vein catheter. Blood samples are collected during 8 hours from the arterial catheter. The blood samples were heparinized and centrifuged. Plasma is collected from the centrifuged samples and frozen. The levels of test compound were subsequently determined in each sample by means of gas chromatography mass spectrometry (Hewlett-Packard 5972MSD). […]

For data set [2], the system named is spontaneous behavior (locomotor activity). Briefly: In vivo test: behavior, spontaneous locomotor activity in non-habituated/nonpretreated rats. The note with it: rat; for locomotor activity in nonpretreated rats: 100 μmol/kg s.c., 30-60 min.
Data set [3] has as its system 3,4-dihydroxyphenyl-acetic acid (DOPAC) in the striatum. Briefly: In vivo test: neurochemistry, 3,4-dihydroxyphenyl-acetic acid in the striatum. The conditions noted are these: rat, n=4. The source says:
After the behavioral activity sessions the rats were decapitated and their brains rapidly taken out and put on an ice-cold petri-dish. The limbic forebrain, the striatum, the frontal cortex and the remaining hemispheral parts of each rat were dissected and frozen. Each brain part was subsequently analyzed with respect to its content of monoamines and their metabolites. The monoaminergic indices analyzed were dopamine (DA), 3,4-dihydroxyphenyl-acetic acid (DOPAC), homovanillic acid (HVA), 3-methoxytyramine (3-MT), serotonin (5-HT), 5-hydroxyindole acetic acid (5-HIAA), and noradrenaline (NA). All monoaminergic indices in the dissected tissue were analyzed by means of HPLC with electrochemical detection as described by Svensson K, et al., 1986, Naunyn-Schmiedeberg's Arch Pharmacol 334: 234-245 and references cited therein.

In data set [4] the test system is locomotor activity of habituated rats. The data set is described as follows: In vivo test: behavior, locomotor activity of habituated rats.
For data set [5], the system named is d-amphetamine induced hyperactivity. The data set is described as follows: In vivo test: behavior, d-amphetamine induced hyperactivity. The conditions noted are these: rat, d-amphetamine pretreated, n=4.

A word on the melting point: it is the temperature, or range, at which the solid turns liquid. Compound `CCCN1CCN(c2ccc(Cl)c(C(F)(F)F)c2)CC1` (as salt: HCl) displayed a melting point of 268 °C.
Same read-out and setting: the value for `CCCN1CCN(c2cc(C(F)(F)F)ccc2Cl)CC1` (as salt: HCl) was 234 °C; that for `CCCN1CCN(c2ccc(F)c(C(F)(F)F)c2)CC1` (as salt: HCl) was 238 °C.
The same measure, in the same setting: to `CCCN1CCN(c2cc(F)cc(C(F)(F)F)c2)CC1` (as salt: HCl) belongs 242 °C; to `CCCN1CCC(c2ccc(Cl)c(C(F)(F)F)c2)CC1` (as salt: HCl) [Example 9, 4-(4-Chloro-3-trifluoromethyl-phenyl)-1-propyl-piperidine], 218 to 220 °C; to `CCCN1CCN(c2ccc(Cl)c([N+](=O)[O-])c2)CC1` (as salt: HCl) [Example 19, 1-(4-Chloro-3-nitro-phenyl)-4-propyl-piperazine], 249 °C.
The same measure, in the same setting: to `CCCN1[C@H](C)CN(c2ccc(Cl)c(C(F)(F)F)c2)C[C@@H]1C` (as salt: HCl) [Example 33, cis-4-(4-Chloro-3-trifluoromethyl-phenyl)-2,6-dimethyl-1-propyl-piperazine] belongs 256 °C; to `CCCN1[C@H](C)CN(c2ccc(F)c(C(F)(F)F)c2)C[C@@H]1C` (as salt: HCl) [Example 34, cis-4-(4-Fluoro-3-trifluoromethyl-phenyl)-2,6-dimethyl-1-propyl-piperazine], 221 °C; to `CCCN1[C@H](C)CN(c2ccc(Cl)c(Cl)c2)C[C@@H]1C` (as salt: HCl) [Example 35, cis-4-(3,4-dichloro-phenyl)-2,6-dimethyl-1-propyl-piperazine], 225 °C.
The compound `CCCN1CCC(c2ccc(F)c(C(F)(F)F)c2)CC1` (as salt: HCl) [Example 43, 4-(4-Fluoro-3-trifluoromethylphenyl)-1-propyl-piperidine] came in with a melting point of 195 to 197 °C.
Still for that read-out and setting: to `CCCN1CCC(c2cc(F)cc(C(F)(F)F)c2)CC1` (as salt: HCl) [Example 44, 4-(3-Fluoro-5-trifluoromethylphenyl)-1-propyl-piperidine] belongs 215 °C.
In the case of `CCCN1CCN(c2cccc(C(F)(F)F)c2)CC1` [1-propyl-4-(3-trifluoromethyl-phenyl)-piperazine, reference compound], the “oral availability (F)” value in data set [1] is 9,5%. The “behavioral inhibition (locomotor activity)” value in data set [2] (50 μmol/kg s.c., n=4) is reported as 271±137 cm/60 min. Besides, the “3,4-dihydroxyphenyl-acetic acid in the striatum” value (“3,4-dihydroxyphenyl-acetic acid” below) in data set [3] (50 μmol/kg s.c.) was 3358±162 ng/g tissue.
Take `CCCN1CCC(c2ccc(Cl)c(C(F)(F)F)c2)CC1` [Example 9, 4-(4-Chloro-3-trifluoromethyl-phenyl)-1-propyl-piperidine]: the “oral availability (F)” value in data set [1] worked out at 55%. The “locomotor activity of habituated rats” value in data set [4] (habituated rats, 50 μmol/kg s.c.) turned out to be 1300±761 cm/60 min. Further, the “spontaneous behavior (distance traveled)” value in data set [2] (50 μmol/kg s.c.) is reported as 944±114 cm/30 min. In data set [5] (50 μmol/kg s.c.), the d-amphetamine induced hyperactivity came out at 3399±1247 cm/30 min. For the same compound, in data set [3] (50 μmol/kg s.c.), the “3,4-dihydroxyphenyl-acetic acid” value is given as 1680±136 ng/g tissue.
As to `CCCN1CCN(c2ccc(Cl)c([N+](=O)[O-])c2)CC1` [Example 19, 1-(4-Chloro-3-nitro-phenyl)-4-propyl-piperazine], the “locomotor activity in nonpretreated rats” value in data set [2] (n=4) is 266±89 cm/30 min. In addition, the d-amphetamine induced hyperactivity in data set [5] (100 μmol/kg s.c.) was 3767±2332 cm/60 min. In addition, the “3,4-dihydroxyphenyl-acetic acid” value in data set [3] (100 μmol/kg s.c.) was determined as 1693±104 ng/g tissue.
Consider `CCCN1[C@H](C)CN(c2ccc(F)c(C(F)(F)F)c2)C[C@@H]1C` [Example 34, cis-4-(4-Fluoro-3-trifluoromethyl-phenyl)-2,6-dimethyl-1-propyl-piperazine], for which the “spontaneous behavior in the habituated rat” value in data set [4] (habituated rat, 33 μmol/kg s.c., n=4) is 919±143 cm/60 min. In addition, the “3,4-dihydroxyphenyl-acetic acid” value in data set [3] (33 μmol/kg s.c.) amounted to 1278±143 ng/g tissue.
Take `CCCN1[C@H](C)CN(c2ccc(Cl)c(Cl)c2)C[C@@H]1C` [Example 35, cis-4-(3,4-dichloro-phenyl)-2,6-dimethyl-1-propyl-piperazine]: the d-amphetamine induced hyperactivity in data set [5] (100 μmol/kg s.c.) is on record as 6514±3374 cm/60 min.
As to `CCCN1CCC(c2ccc(F)c(C(F)(F)F)c2)CC1` [Example 43, 4-(4-Fluoro-3-trifluoromethylphenyl)-1-propyl-piperidine], in data set [2] (n=4), the “locomotor activity in nonpretreated rats” value came out at 540±128 cm/30 min. Moreover, in data set [3] (100 μmol/kg s.c.), the “3,4-dihydroxyphenyl-acetic acid” value is recorded as 1895±100 ng/g tissue.
